Source: US6762052B1, “DNA sequence encoding flavin-containing monooxygenase” (priority 1993, dated 2004)
Where two headings read alike, the source gives them in different places.

Key:
pig liver FMO form I = target: T1, pig liver FMO form I (Sus scrofa, UniProt P16549); details: cited from earlier work
T1 sequence (P16549 1-532): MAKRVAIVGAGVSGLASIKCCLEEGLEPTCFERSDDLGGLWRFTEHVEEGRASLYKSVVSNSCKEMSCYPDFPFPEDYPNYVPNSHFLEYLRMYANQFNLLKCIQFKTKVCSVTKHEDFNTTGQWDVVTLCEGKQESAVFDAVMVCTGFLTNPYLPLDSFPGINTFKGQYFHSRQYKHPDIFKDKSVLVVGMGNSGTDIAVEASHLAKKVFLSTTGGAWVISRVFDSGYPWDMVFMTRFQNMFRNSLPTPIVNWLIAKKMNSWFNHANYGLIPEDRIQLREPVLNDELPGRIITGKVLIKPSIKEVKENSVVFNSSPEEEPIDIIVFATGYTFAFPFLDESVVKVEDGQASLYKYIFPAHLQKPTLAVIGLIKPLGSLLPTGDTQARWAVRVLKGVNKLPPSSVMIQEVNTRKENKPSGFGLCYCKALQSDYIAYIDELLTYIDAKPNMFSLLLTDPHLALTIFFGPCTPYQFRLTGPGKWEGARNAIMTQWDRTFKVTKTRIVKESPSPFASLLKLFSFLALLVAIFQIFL

[1] = tested on: human FMO3-maltose binding protein (FMO3-MBP); assay: Sequential N-oxygenation of primary amines to oximes by cDNA-expressed human FMO3-MBP; type: in vitro ADME
From the text: The cDNA-expressed human FMO3-maltose binding protein (FMO3-MBP) efficiently catalyzes the sequential N-oxygenation of primary amines to oximes through the intermediacy of hydroxylamines. […] In addition, formation was not dependent on autoxidation of hydroxylamines or generation of oxygen radical species. Thus, […] and O2^− had virtually no effect on the formation of oxime from the primary hydroxylamine. […] This represents a fundamental difference between FMO3 and other FMOs and indicates a use of FMO3 as a stereoselective catalyst in the formation of precious chemicals or hard to form metabolites having great stereochemical purity.

Human Liver Microsomes = assay: in vitro
Protocol: In all cases examined, product formation was directly determined by HPLC analysis of organic extracts.
Human liver samples were obtained from the Department of Surgery (UCSF) and with a protocol from the Medical College of Wisconsin (S. Wrighton).
A typical incubation mixture (final volume 0.25 ml) contained hepatic microsomes (0.4 mg of protein) or bacterial lysate (2.3 mg of protein), NADP^+ (0.5 mM), glucose-6-phosphate (2.0 mM), glucose-6-phosphate dehydrogenase (1 IU), DETAPAC (0.8 mM) and potassium phosphate buffer (50 mM, pH 8.4). Reactions were initiated by the addition of substrate and terminated at designated times by the addition of three volumes of cold dichloromethane, mixed thoroughly and centrifuged to separate the aqueous and organic fractions. N- and S-oxide metabolic products in the resulting organic extracts were separated and quantified by HPLC. […] Thiobenzamide and thiobenzamide S-oxide were quantified with this same, HPLC system employing a mobile phase of methanol/acetonitrile/60% perchloric acid (20:80:0.016, v/v) which gave retention volumes of 2.7 and 7.0 ml, respectively. […] The major metabolites formed in the incubations were also subjected to mass spectral analysis after extraction of isolated HPLC fractions.
RPLC of the S-oxide diastereomers with a Chiracel OT chiral analytical column (25 cm×0.15 cm inner diameter, Daicel Chemical Co., New York, N.Y.) was accomplished with a Beckman system, Kratos UV detector (240 nm) and a Hewlett Packard Integrator. […] Quantification was accomplished by comparing integrated HPLC peak areas after taking into account the difference in the extinction coefficients at 240 nm. Likewise, the cis and trans S-oxide diasteromers of (+)- and (−)-2-methyl-1,-benzodithiole were separated with a Chiracel OT chiral analytical column.

NM522 E. coli = assay: Bactericidal action / cytotoxicity in liquid culture; details: 50 or 100 micrograms per mL
not read = substrate: CN(C)C; assay: not read; details: other: Lys 158 variant; evaporative light scattering HPLC detection; 37.0 °C
Protocol: For HFMO3-MBP assay, all HFMO3-MBP incubations were done as follows: Into a test tube was added DETAPAC (1.2 mM, final concentration for a 250 μl reaction) followed by the addition of 60 μl NADPH generating system (0.4 mM NADP, 0.4 mM glucose-6-phosphate, and 20 μl of a 50 units mI^−1 glucose-6-phosphate dehydrogenase). The tube was chilled on ice and buffer and enzyme were added as described below for individual experiments to give a volume of 240 μl. The incubation was initiated by the addition of 5-DTP (10 μl of 5 mM) and placed in a shaking water bath at 37° C. for 10 min (unless specified otherwise). The incubation was stopped by the addition of 1.0 ml of ice-cold CH2Cl2. Following the addition of sodium carbonate (approx. 20 mg), the culture tube was vortexed, centrifuged (2000×g, 10 min), and the organic layer was removed and transferred to a 1.5 ml microfuge tube. The organic solvent was evaporated under a stream of Ar(g) to dryness and the residue was taken up in MeOH (300 μl) for determination HPLC analysis.
This HPLC system efficiently resolved the 5-DTP substrate from the N-oxide product with retention times of 5.30 min and 4.30 min, respectively.
MTS-oxygenation assays were carried out under the same buffer, temperature, time and volume conditions, as for the N-oxygenation assays. The reactions were initiated upon addition of 10 μl of a 5 mM solution of MTS. […]

[2] = substrate: NC(=S)c1ccccc1; assay: cells, lysate or membranes named; details: other: N- or S-oxide formation; for the 4-bromophenyl-1,3-oxathiolanes formation of the trans S-oxide; pH 8.4; 37.0 °C
Protocol: Competent NM522 Escherichia coli cells were transformed with the pTrc HLFMO 3 plasmid. […] After inoculation with a fresh overnight culture of NM522 containing pTrcHLFMO 3, the culture was grown at 37° C. until Abs600 was approximately 0.5 absorbance units. Finally, IPTG (0.8 mM) was added to the culture to induce expression of protein and the culture was left to grow overnight at 37° C.
The bacterial pellet was resuspended in 5 volumes of 50 mM potassium phosphate buffer (pH 8.4) containing 1% Triton X-100, 0.1% L-, α-phosphatidylcholine (L-α-lecithin) from egg yolk, 500 μM PMSF, and 1 mM EDTA. The mixture was sonicated and then centrifuged to remove cellular debris. […]

CN(C)CCCN1c2ccccc2CCc2ccccc21 [imipramine]
substrate activity, in words (pig liver FMO form I): excellent substrate

CCCCCCCCNN1c2ccccc2Sc2ccc(C(F)(F)F)cc21 [10-(N-n-octylamino)-2-(trifluoromethyl)phenothiazine]
oxime formation from primary amine, product stereoselectivity [1]: stereoselectively converted to the cis oxime | oxime formation from primary amine, product stereoselectivity (Human Liver Microsomes): stereoslectively converted to the cis oxime

NCCc1ccccc1 [phenethylamine]
oxime formation from primary amine, product stereoselectivity ([1]; cDNA-expressed human FMO3-MBP): stereoselectively converted to trans oximes | oxime formation from primary amine, product stereoselectivity (Human Liver Microsomes; adult human liver microsomes, NADPH-dependent): stereoselectively converted to trans oximes

C[N+]1([O-])CCN(c2cc3c(cc2F)c(=O)c(C(=O)O)cn3-c2ccc(F)cc2)CC1 [difloxacin terminal tertiary amine N-oxide]
cytotoxicity (NM522 E. coli): not significantly cytotoxic

B1: lys158-HFMO3-MBP (Homo sapiens; E158K) (protein)
chain: GKKVAIIGAGVSGLASIRSCLEEGLEPTCFEKSNDIGGLWKFSDHAEEGRASIYKSVFSNSSKEMMCFPDFPFPDDFPNFMHNSKIQEYIIAFAKEKNLLKYIQFKTFVSSVNKHPDFATTGQWDVTTERDGKKESAVFDAVMVCSGHHVYPNLPKKSFPGLNHFKGKCFHSRDYKEPGVFNGKRVLVVGLGNSGCDIATELSRTAEQVMISSRSGSWVMSRVWDNGYPWDMLLVTRFGTFLKNNLPTAISDWLYVKQMNARFKHENYGLMPLNGVLRKEPVFNDELPASILCGIVSVKPNVKEFTETSAIFEDGTIFEGIDCVIFATGYSFAYPFLDESIIKSRNNEIILFKGVFPPLLEKSTIAVIGFVQSLGAAIPTVDLQSRWAAQVIKGTCTLPSMEDMMNDINEKMEKKRKWFGKSETIQTDYIVYMDELSSFIGAKPNIPWLFLTDPKLAMEVYFGPCSPYQFRLVGPGQWPGARNAILTQWDRSLKPMQTRVVGRLQKPCFFFHWLKLFAIPILLIAVFLVLT
Km (not read): 634 µM

B2: adult human liver flavin-containing monooxygenase (form 3) (Homo sapiens; E158K) (protein)
chain: MGKKVAIIGAGVSGLASIRSCLEEGLEPTCFEKSNDIGGLWKFSDHAEEGRASIYKSVFSNSSKEMMCFPDFPFPDDFPNFMHNSKIQEYIIAFAKEKNLLKYIQFKTFVSSVNKHPDFATTGQWDVTTERDGKKESAVFDAVMVCSGHHVYPNLPKKSFPGLNHFKGKCFHSRDYKEPGVFNGKRVLVVGLGNSGCDIATELSRTAEQVMISSRSGSWVMSRVWDNGYPWDMLLVTRFGTFLKNNLPTAISDWLYVKQMNARFKHENYGLMPLNGVLRKEPVFNDELPASILCGIVSVKPNVKEFTETSAIFEDGTIFEGIDCVIFATGYSFAYPFLDESIIKSRNNEIILFKGVFPPLLEKSTIAVIGFVQSLGAAIPTVDLQSRWAAQVIKGTCTLPSMEDMMNDINEKMEKKRKWFGKSETIQTDYIVYMDELSSFIGAKPNIPWLFLTDPKLAMEVYFGPCSPYQFRLVGPGQWPGARNAILTQWDRSLKPMQTRVVGRLQKPCFFFHWLKLFAIPILLIAVFLVLT
Km [2]: 72.6 µM | Vmax [2]: 1.44 nmol/min/mg of protein
